Measured values reported in patent publication US20030073872A1, “Hexameric complexes and their preparation” (priority 2001, published 2003).

Assay: NMR check of guest exchange in a sealed tube heated to 150° C.
Type: physicochemical
Conditions: sealed NMR tube heated to 150° C., about 1.4 atmospheres, d^6-acetone
Experimental: Nuclear magnetic resonance (NMR) spectroscopic investigations were carried out to verify the existence of the spheroidal hexamer in solution. […] FIG. […] The enlarged inset in FIG. 3 is the region of the spectrum displaying the methanol resonances. The peak assignments a, b, and c in the enlarged inset are for diaryl C—H, CH3 of the methanol guest, and CH3 of the methanol in the bulk solvent, respectively. Peak assignments d, e, and f are for the CH2 moiety adjacent to CH in the bridging group, the remaining CH2 groups, and the terminal CH3 group, respectively, on the R substituent. Peak g is the TMS internal standard.
The most significant features in the spectrum of FIG. 3 are the two methanol peaks, b and c, indicating, respectively, the methanol trapped within the hexameric spheroidal assembly and the methanol in the bulk solvent. Similar work was carried out in d^6-acetone, d^6-dimethyl sulfoxide, and d^8-toluene.

For C-tridecylpyrogallol(4)arene, the “stability of guest/host assembly (methanol guest does not exchange with bulk solvent)” value was “stable”.
